Here are results for one sequence from patent US9121022B2, “Method for controlling herbicide-resistant plants” (priority 2010, dated 2015).

The test system of this data set is Nicotiana benthamiana plants (endogenous PDS, EPSPS, RuBisCO genes). The data set is described as follows: PDS, EPSPS or RuBisCO anti-sense polynucleotides on Nicotiana benthamiana, plant height and phenotype (Example 33). The format is in vivo. The source says:
An anti-sense polynucleotide with the sequence […] (SEQ ID NO:34) was designed for the endogenous Nicotiana benthamiana phytoene desaturase (PDS) gene, which has the cDNA sequence fragments […] […] (SEQ ID NO:38). Anti-sense polynucleotides with the sequences […] (SEQ ID NO:279), […] (SEQ ID NO:280), […] (SEQ ID NO:281), […] (SEQ ID NO:282), […] (SEQ ID NO:283), and […] (SEQ ID NO:284) were designed for the endogenous Nicotiana benthamiana 5-enolpyruvylshikimate-3-phosphate synthase (EPSPS) gene, based on the Nicotiana benthamiana EPSPS cDNA sequence […] […] (SEQ ID NO:285), […] […] (SEQ ID NO:286), and […] […] (SEQ ID NO:287). Anti-sense polynucleotides with the sequences […] (AK195, RBCS—1-2-3-4, SEQ ID NO:288), […] (AK196, RBCS—1-2-3-4, SEQ ID NO:289), […] (AK197, RBCS—1-2-3-4, SEQ ID NO:290), […] (AK198, RBCS—1-2, SEQ ID NO:291), […] (AK199, RBCS—1-2, SEQ ID NO:292), […] (AK200, RBCS—3-4, SEQ ID NO:293), […] (AK201, RBCS—3-4, SEQ ID NO:294), and […] (AK202, RBCS—3-4, SEQ ID NO:295) were designed for the endogenous Nicotiana benthamiana ribulose-1,5-bisphosphate carboxylase oxygenase (RuBisCO) gene, based on the Nicotiana benthamiana chloroplastic RuBisCO small chain 2A cDNA sequence fragments • […] […]

As for “CATCTCCTTTAATTGTACTGC (DNA, backbone not given here) [PDS 21-mer anti-sense ssDNA]”, under “12 days (PDS and EPSPS) or 10 days (RuBisCO) after treatment”, the “plant height (FIGS. 36A-36C)” value is recorded as “severe stunting”. Moreover, the other phenotype result (PDS 25 nanomoles, EPSPS and RuBisCO 50 nanomoles of each polynucleotide per plant) is reported as “bleaching”.
